Source: patent US6579696B1, “Polymyxin B conjugates” (priority 1992, dated 2003)
Like-named read-outs stand apart in the source and are kept apart here.

What was measured:
[1] = system: E. coli J5; format: cell-based; conditions: Table 40
[2] = system: mouse monoclonal anti-fluorescein antibody (#4-4-20); format: binding
Excerpt: Millipolarization data was hand calculated using the above equations as described for the fully automated instrument. Total intensity is not represented in the following tables. Table 48 illustrates the reactivity of PMB-Cys-Fl when reacted with mouse monoclonal anti-fluorescein antibody (#4-4-20) obtained from Edward M. Voss at the University of Illinois Urbana.

[3] = system: E. coli 0111:B4 bacteria; format: binding; conditions: in °C (unit assumed)
[4] = system: E. coli 0111: B4; format: binding; conditions: bacteria coated at 5.0 ug/ml, washed; no antibody
Experimental: (§1) Staph. aureus and E. coli 0111: B4 were cultured in TSB media at 37 degrees C with shaking. Cells were collected by centrifugation and suspended in 50 mM sodium phosphate buffer, pH 6.8. The cells were again collected by centrifugation and suspended in […] sodium phosphate buffer containing 0.025% sodium azide (buffer).
(§2) The bacteria were diluted with buffer to an absorbance of 1.0 at 620 nm. PMB-Cys-Mal-FL was added to 2.5 ml of each diluted bacterial suspension, to a final concentration of 5.0 ug/ml. The suspensions were incubated at ambient temperature for 5 minutes. The bacteria were collected by centrifugation and suspended in buffer, repeated for a total of three times. The bacteria were then suspended in buffer and Tween 20 detergent was added to a final concentration of 0.1%. The bacteria were again collected by centrifugation and suspended in 1.5 ml buffer without Tween 20.
(§3) The bacteria were diluted 10 fold with buffer and fluorescence was measured in a Sequoia-Turner model 450 Fluorometer using NB490 and SC515 filters with the gain at 5. Mouse monoclonal anti-fluorescein antibody 4-4-20 was added with mixing to the bacterial suspensions. Table 50 summarizes the experimental results.

[5] = system: Staph. aureus; format: binding; conditions: bacteria coated at 5.0 ug/ml, washed
Experimental: as §1, §2, §3

[6] = system: E. coli 0111:B4; format: cell-based; set-up: key: −: no agglutination; +: microagglutination; +++: macroagglutination; conditions: avidin beads loaded with compound
Experimental: (§4) 100 ul polystyrene beads (Spherotech […], 5% w/v) were aliquoted to two 1.5 mL microcentrifuge tubes, centrifuged 1 min at 12,000 g in microcentrifuge and washed 2×with 1 ml PBS (vortexed and recentrifuged 1-2 min after each wash). The beads were resuspended in 900 ul PBS, and 100 ul of 1 mg/ml solution of avidin (Sigma) added, and the tubes rotated overnight at room temperature. The beads were pelleted, and washed sequentially as described above with 1 ml PBS, PBS+0.5% tween 20 (PBST), and PBS, and each sample resuspended in 200 ul PBS. The samples were pooled and stored at 4 degrees.
(§5) 20 ul avidin coated beads were aliquoted into 2×1.5 ml microcentrifuge tubes, and non-specifically binding sites blocked by rotating with 1 ml PBS+1% BSA for 1 hr at room temperature. […] The samples were pelleted, and washed with 1 ml PBS, repelleted and resuspended with 20 ul PBS. III Bacterial Agglutination Assays
(§6) 5 ul of each resin was added to 20 ul bacteria (1/10 dilution of a saturated overnight culture) in independant depression wells (2 wells/bacteria tested). The samples were incubated 30 min at 37 degrees, swirled, and agglutination scored. (Note that −=no agglutination, +=microagglutination and +++=macroagglutination)

[7] = system: E. coli HB101; format: cell-based; set-up: key: −: no agglutination; +: microagglutination; +++: macroagglutination; conditions: avidin beads loaded with compound
Experimental: as §4, §5, §6

[8] = system: Salmonella 34576; format: cell-based; set-up: key: −: no agglutination; +: microagglutination; +++: macroagglutination; conditions: avidin beads loaded with compound
Experimental: as §4, §5, §6

[9] = system: E. coli J5; format: cell-based; set-up: key: −: no agglutination; +: microagglutination; +++: macroagglutination; conditions: for Agglutination by avidin beads: Table 53
Experimental: as §4, §5, §6
To determine if free Immunoadaptor™ compounds can also stably bind surface exposed bacterial structures, agglutination assays were performed using bacteria prebound to Immunoadaptor™ compounds. The assay was performed with J5 bacteria, since the agglutination signal (see table above) was the strongest with this strain. 40 ul avidin coated resin was blocked for 1 hr at room temperature with 1 ml PBS+1% BSA, pelleted as described above, and resuspended in 40 ul PBS. […] The following assays were performed:
Incubated 1 hr at 37 degrees in depression well, swirled and agglutination scored.
Incubated 10 min at 37 degrees then added 5 ul avidin coated beads. Incubated 1 hr at 37 degrees in depression well, swirled and agglutination scored.
Incubated 15 min at 37 degrees, pelleted cells by centrifugation, washed with 100 ul PBS (resuspended cells with micropipetter) and repelleted. Cells were resuspended in 80 ul PBS, 20 ul aliquots distributed to depression well, 5 ul avidin coated beads added, and, incubated 1 hr at 37 degrees, swirled and agglutination scored.

[10] = system: H16 bacterial strain; format: binding; conditions: 1 ug/ml, Extravidin and anti-avidin chase
[11] = system: J5 bacteria phagocytosed by J774A.1 mouse macrophage cell line; format: cell-based
[12] = system: E. coli 0111:B4
[13] = target: avidin and chicken anti-PMB antibody (Gallus gallus, UniProt P02701)
Sequence of avidin and chicken anti-PMB antibody (P02701 25-152): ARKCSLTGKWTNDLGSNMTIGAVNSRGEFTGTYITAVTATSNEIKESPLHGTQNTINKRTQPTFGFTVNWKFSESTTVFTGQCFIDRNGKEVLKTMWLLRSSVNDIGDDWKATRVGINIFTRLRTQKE
Experimental: The capture ELISA was performed as described below. […] The coating suspensions were decanted, and all wells were washed three times using PBS+0.5% Tween 20 (PBST). In order to block non-specific binding sites, 100 ul of 1% BSA (Sigma, St. Louis, Mo.) in PBS (blocking solution) was then added to each well, and the plates were incubated for 1 hr. at 37° C.
The blocking solution was decanted, and duplicate samples of 150 ul of either PMB-Cy-Biotin or PMB-Cy-Fl added to the first well of a dilution series. The initial testing concentration of the premixed conjugate was 10 ng/ml in blocking buffer (see above), followed by 5 fold dilutions in blocking buffer. This was accomplished by serially transferring 30 ul aliquots to 120 ul buffer, mixing, and repeating the dilution into a fresh well. After the final dilution, 30 ul was removed from the well such that all wells contained 120 ul final volume. A total of 2 such dilutions were performed. […] Following this incubation, the serially diluted samples were decanted, and the wells were washed six times using PBST (Phosphate-Buffered Saline with Tween). To each well, 100 ul of 1/1000 diluted chicken anti-PMB antibody or chicken preimmune, diluted in blocking buffer was added, and the plate incubated 1 hr at 37° C. The antibody solutions were decanted and the plates were washed as described above. To each well, 100 ul of 1/1000 diluted rabbit anti-chicken IgG alkaline phosphatase (Sigma) diluted in blocking buffer was added, and the plate incubated 1 hr at 37° C. The antibody solutions were decanted and the plates were washed as described above, substituting 50 nM Na2CO3, pH 9.5 for the PBST in the final wash. The plates were developed by the addition of 100 ul of a solution containing 1 mg/ml para-nitro phenyl phosphate (Sigma, St. Louis, Mo.) dissolved in 50 nM Na2CO3, 10 mM MgCl2, pH 9.5 to each well, and incubating the plates at room temperature in the dark overnight. […] Only the ELISA readings from the maximally diluted samples in each dilution series are shown.

polymyxin B—cystiene—Maleimamide—fluorescein [PMB-Cys-Mal-FL]
MIC [1]: 0.8 µg/mL | mP ([2]; PMB-Cys-Mal-FL 10^−7 M alone): 32.5 | mP ([2]; antibody 5 × 10^-8 M & PMB-Cys-Mal-FL 10^-7 M): 390.3 | quenching of the intensity signal by anti-fluorescein antibody ([2]; not represented in Table 48): 95% | mP ([3]; E. coli (2.7 × 10^8 bacteria) & PMB-Cys-Mal-Fl): 256.8 | mP ([3]; PMB-Cys-Mal-Fl (10^−8 M) alone): 57.3 | FLUORESCENCE of coated bacteria [4]: 40 AFU | FLUORESCENCE of coated bacteria [5]: 5 AFU | Agglutination [6]: − | Agglutination [7]: − | Agglutination [8]: − | Agglutination by avidin beads ([9]; Chase format): − | Agglutination by avidin beads ([9]; Premix format): − | Agglutination by avidin beads ([9]; Wash + Chase format): − | Agglutination ([9]; avidin beads loaded with compound): − | ELISA titer ([10]; 2 × 10^5 bacteria): 0.005 | ELISA titer ([10]; 2 × 10^6 bacteria): 0.162 | % Macrophage with phagocytosed bacteria ([11]; Table 59, 0.5 ug/ml then 10 ug/ml anti-fluorescein antibody (chase)): 40% | % Macrophage with phagocytosed bacteria ([11]; Table 59, 0.5 ug/ml with 10 ug/ml anti-fluorescein antibody (premix)): 29% | % Macrophage with phagocytosed bacteria ([11]; Table 59, opsonin alone): 15% | Recovered bacterial colonies ([11]; Table 59, opsonin alone): 29 | Recovered bacterial colonies ([11]; Table 59, then anti-fluorescein antibody (chase)): 76 | Recovered bacterial colonies ([11]; Table 59, with anti-fluorescein antibody (premix)): 52 | % Macrophage with phagocytosed bacteria ([11]; Table 60, 1×10^8 J5 bacteria opsonized, from 100 macrophage examined, conjugates 0.5 ug/ml, anti-avidin 1/500, anti-fluorescein antibody 25 ug/ml): 5% | % Macrophage with phagocytosed bacteria ([11]; Table 61 (repeat assay), 1×10^8 J5 bacteria opsonized, from 100 macrophage examined, conjugates 0.5 ug/ml, anti-avidin 1/400, anti-fluorescein antibody 14 ug/ml): 8% | enhancement of phagocytosis (in words) ([11]; with anti-fluorescein antibody): Clear elevation of phagocytosis | MIC ([12]; Table 40, first number of the cell): 0.9 µg/mL | MIC ([12]; Table 44): 1 µg/mL | ELISA absorbency at 410 nm ([13]; Anti-PMB test antibody, Avidin coated wells, maximally diluted sample): 0.033 | ELISA absorbency at 410 nm ([13]; Anti-PMB, PBS coated wells): 0.016 | ELISA absorbency at 410 nm ([13]; Preimmune, Avidin coated wells): 0.010 | ELISA absorbency at 410 nm ([13]; Preimmune, PBS coated wells): 0.020
